Measurements published in ChEMBL document CHEMBL1933040, “The novel agent ophiobolin O induces apoptosis and cell cycle arrest of MCF-7 cells through activation of MAPK signaling pathways” (Bioorg Med Chem Lett, 2012).
Activity calls are given as the source filed them. The calls are words filed in the database; no cut-off is given here.

What was measured:
[1] = target: T1, MAP kinase p38 (Homo sapiens) (UniProt O15264+Q15759+Q16539+P53778); assay: Activation of MAPK p38 phosphorylation in human MCF7 cells at 17.86 uM after 48 hrs by Western blot analysis in presence of p38 inhibitor SB203580; format: cell-based
[2] = system: MCF7; assay: Cell cycle arrest in human MCF7 cells assessed as accumulation at G0/G1 phase at 17.86 uM after 48 hrs by flow cytometry (reference value: 39.34 +/- 3.37%); format: functional
[3] = target: T1, MAP kinase p38 (Homo sapiens); assay: Activation of MAPK p38 phosphorylation in human MCF7 cells at 17.86 uM after 12 hrs by Western blot analysis; format: cell-based
[4] = system: MCF7; assay: Induction of apoptosis in human MCF7 cells at 17.86 uM after 48 hrs using Annexin V-FITC and propidium iodide staining by flow cytometry (reference value: 3.71 +/- 0.63%); format: functional
[5] = target: T2, Mitogen-activated protein kinase; ERK1/ERK2 (Homo sapiens) (UniProt P27361+P28482); assay: Activation of ERK1/2 phosphorylation in human MCF7 cells at 17.86 uM after 48 hrs by Western blot analysis in presence of ERK inhibitor U0126; format: cell-based
[6] = system: MCF7; assay: Induction of apoptosis in human MCF7 cells assessed as decrease in Bcl2 expression level at 17.86 uM after 12 to 48 hrs by Western blot analysis; format: functional, cell-based
[7] = system: MCF7; assay: Cytotoxicity against human MCF7 cells after 48 hrs by MTT assay; format: functional, cell-based
[8] = system: MCF7; assay: Effect on total MAPK p38 protein level in human MCF7 cells at 17.86 uM after 12 to 48 hrs by Western blot analysis; format: functional, cell-based
[9] = target: T1, MAP kinase p38 (Homo sapiens); assay: Activation of MAPK p38 phosphorylation in human MCF7 cells at 17.86 uM after 36 to 48 hrs by Western blot analysis; format: cell-based
[10] = system: MCF7; assay: Cell cycle arrest in human MCF7 cells assessed as accumulation at G0/G1 phase at 17.86 uM after 24 hrs by flow cytometry (reference value: 39.34 +/- 3.37%); format: functional
[11] = system: MCF7; assay: Induction of apoptosis in human MCF7 cells assessed as change in Bax/Bcl2 ratio at 17.86 uM by Western blot analysis; format: functional, cell-based; conditions: TDE = time-dependent effect
[12] = system: MCF7; assay: Induction of apoptosis in human MCF7 cells at 17.86 uM after 48 hrs by using Annexin V-FITC and propidium iodide staining by flow cytometry in presence of JNK inhibitor SP600125; format: functional, cell-based
[13] = system: MCF7; assay: Induction of apoptosis in human MCF7 cells assessed as increase in Bim expression level at 17.86 uM after 12 to 48 hrs by Western blot analysis; format: functional, cell-based
[14] = system: MCF7; assay: Cell cycle arrest in human MCF7 cells assessed as accumulation at G0/G1 phase at 17.86 uM after 12 hrs by flow cytometry (reference value: 39.34 +/- 3.37%); format: functional
[15] = Activation of JNK phosphorylation in human MCF7 cells at 17.86 uM after 24 hrs by Western blot analysis; format: cell-based
[16] = system: MCF7; assay: Induction of apoptosis in human MCF7 cells assessed as increase of Bcl-2 phosphorylation at Ser70 at 17.86 uM after 12 hrs by Western blot analysis in presence of JNK inhibitor SP600125; format: functional, cell-based
[17] = system: MCF7; assay: Effect on total JNK protein level in human MCF7 cells at 17.86 uM after 12 to 48 hrs by Western blot analysis; format: functional, cell-based
[18] = target: T2, Mitogen-activated protein kinase; ERK1/ERK2 (Homo sapiens); assay: Activation of ERK1/2 phosphorylation in human MCF7 cells at 17.86 uM after 24 hrs by Western blot analysis relative to control; format: cell-based
[19] = system: MCF7; assay: Effect on total ERK 1/2 protein level in human MCF7 cells at 17.86 uM after 12 to 48 hrs by Western blot analysis; format: functional, cell-based
[20] = system: MCF7; assay: Induction of apoptosis in human MCF7 cells at 17.86 uM using Annexin V-FITC and propidium iodide staining by flow cytometry; format: functional, cell-based; conditions: TDE = time-dependent effect
[21] = system: MCF7; assay: Induction of apoptosis in human MCF7 cells assessed as change in Bax expression level at 17.86 uM after 12 to 48 hrs by Western blot analysis; format: functional, cell-based
[22] = system: MCF7; assay: Induction of apoptosis in human MCF7 cells assessed as change in Bcl-2 protein level at 17.86 uM after 12 hrs by Western blot analysis in presence of JNK inhibitor SP600125; format: functional, cell-based
[23] = system: MCF7; assay: Cell cycle arrest in human MCF7 cells assessed as accumulation at G0/G1 phase at 17.86 uM by flow cytometry; format: functional, cell-based; conditions: TDE = time-dependent effect
[24] = system: HUVEC; assay: Cytotoxicity against human HUVEC cells after 48 hrs by MTT assay; format: cell-based

T2 sequence (P27361 whole entry, looked up): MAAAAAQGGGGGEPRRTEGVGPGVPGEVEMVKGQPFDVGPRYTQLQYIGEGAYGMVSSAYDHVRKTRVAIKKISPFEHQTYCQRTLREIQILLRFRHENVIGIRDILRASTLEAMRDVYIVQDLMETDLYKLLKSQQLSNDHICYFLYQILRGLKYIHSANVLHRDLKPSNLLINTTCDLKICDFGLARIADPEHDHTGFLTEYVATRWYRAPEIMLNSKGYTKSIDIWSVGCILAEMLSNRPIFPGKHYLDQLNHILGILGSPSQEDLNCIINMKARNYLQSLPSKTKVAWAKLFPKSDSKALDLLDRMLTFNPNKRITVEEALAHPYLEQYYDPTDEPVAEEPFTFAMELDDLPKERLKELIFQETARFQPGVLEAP
T2 sequence (P28482 whole entry, looked up): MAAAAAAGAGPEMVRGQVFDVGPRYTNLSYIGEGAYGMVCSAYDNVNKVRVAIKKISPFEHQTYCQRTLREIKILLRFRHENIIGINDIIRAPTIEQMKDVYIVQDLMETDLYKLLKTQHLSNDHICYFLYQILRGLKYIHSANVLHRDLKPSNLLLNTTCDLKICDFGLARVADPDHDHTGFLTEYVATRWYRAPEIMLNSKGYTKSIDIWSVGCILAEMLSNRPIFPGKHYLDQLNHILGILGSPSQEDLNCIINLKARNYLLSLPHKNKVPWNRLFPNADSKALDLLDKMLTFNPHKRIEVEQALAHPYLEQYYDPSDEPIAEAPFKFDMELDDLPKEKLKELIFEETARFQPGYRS

Activity [1]: inactive
Activity [3]: Active
Activity [5]: inactive
Activity [9]: Active
Activity [18]: Active
Compound: CO[C@H]1O[C@@]2(OC)C[C@@](C)(O)[C@H]3C[C@@]4(C)CC[C@H]([C@@H](C)/C=C\C=C(C)C)[C@@H]4C/C=C/1[C@H]32 [OPHIOBOLIN O]
Activity [2]: 78.54%
Activity [4]: 47.18%
Activity [6]: Active
Activity [7]: Dose-dependent effect
IC50 ([7]; MCF7, 48 h): 17.9 µM
Activity [8]: Active
Activity [10]: 60.1%
Activity [11]: tde
Activity [12]: inactive
Activity [13]: Active
Activity [14]: 44.79%
Activity [15]: Active
Activity [16]: Active
Activity [17]: Active
Activity [19]: Active
Activity [20]: tde
Activity [21]: inactive
Activity [22]: Active
Activity [23]: tde
Activity [24]: Non-toxic
